Reference: patent US20220395528A1, “AGENT FOR PREVENTING OR TREATING […] DEVICE FOR PREVENTING OR TREATING ARRHYTHMIA” (SCHOOL JURIDICAL PERSON THE KITASATO INSTITUTE, priority 2019, published 2022)

What was measured:
Pigs = test: Number of arrhythmias on electrocardiogram in pigs after balloon occlusion of the anterior descending branch of the left coronary artery, gas inhalation (Experiment Example 1); format: in vivo; conditions: coronary blood flow interrupted, counted for 10 minutes of inhalation versus the preceding 10 minutes, FIG. 3
Method: Pigs were anesthetized with pentobarbital, and electrocardiogram measurement was performed. After tracheal intubation, an artificial respirator was connected, and respiratory management was performed. A catheter was inserted into the descending aorta from the inguinal region, a balloon was placed in the anterior descending branch of the left coronary artery, and the balloon was inflated to interrupt the blood flow. After 40 minutes, an electrocardiogram was measured without doing anything for 10 minutes, the number of arrhythmias was counted, and after that, for 10 minutes, the number of arrhythmias was counted in the same manner for a control group, a hydrogen inhalation group, a nitric oxide inhalation group, or a combination group (hydrogen and nitric oxide inhalation group) in a divided manner.
A gas inhaled by the control group was a mixed gas (oxygen concentration of 35%) of oxygen and nitrogen and containing no hydrogen or nitric oxide.

[1] = high-concentration hydrogen inhaled, gaseous hydrogen used as a gas for diving; cited from earlier work

For `[HH]` [hydrogen], the number of arrhythmias (Pigs; mixed gas of air and hydrogen, hydrogen concentration 1.3%) is listed as “decreased” and the side effects [1] is listed as “no side effects”.

With `[N]=O` [nitric oxide, reference compound] the number of arrhythmias (Pigs; mixed gas of air and nitric oxide, nitric oxide concentration 80 ppm) was “increase”.
